Measured values from PubChem BioAssay (NCI).
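All cell lines were grown in 96-well plates and treated with compound for 48 hours. At the TGI there is no net growth.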

Key:
Assay in all cases: inhibition of tumour cell growth, NCI panel, 48 h
A498 renal = tested on: A498 renal
BT-549 breast = tested on: BT-549 breast
HCT-15 colon = tested on: HCT-15 colon
IGROV1 ovarian = tested on: IGROV1 ovarian
K-562 leukemia = tested on: K-562 leukemia
NCI-H23 lung = tested on: NCI-H23 lung
PC-3 prostate = tested on: PC-3 prostate
SF-268 CNS = tested on: SF-268 CNS
SW-620 colon = tested on: SW-620 colon
UACC-257 melanoma = tested on: UACC-257 melanoma

Cc1ccc(N(Cc2ccccc2)Cc2ccccc2)cc1
TGI (A498 renal): > 100 µM | TGI (BT-549 breast): > 100 µM | TGI (HCT-15 colon): > 100 µM | TGI (IGROV1 ovarian): > 100 µM | TGI (K-562 leukemia): > 100 µM | TGI (NCI-H23 lung): > 100 µM | TGI (PC-3 prostate): > 100 µM | TGI (SF-268 CNS): > 100 µM | TGI (SW-620 colon): > 100 µM | TGI (UACC-257 melanoma): > 100 µM

O=[N+]([O-])c1cc(C=NC23CC4CC(CC(C4)C2)C3)ccc1Cl
TGI (A498 renal): > 100 µM | TGI (BT-549 breast): 45.3 µM | TGI (HCT-15 colon): 48.3 µM | TGI (IGROV1 ovarian): 47.5 µM | TGI (K-562 leukemia): > 43.6 µM | TGI (NCI-H23 lung): 42.8 µM | TGI (PC-3 prostate): 47.5 µM | TGI (SF-268 CNS): > 85.9 µM | TGI (SW-620 colon): 27.7 µM | TGI (UACC-257 melanoma): 39.6 µM

CC1(C)O[C@H]2OC(CO[Si](C)(C)C(C)(C)C)C(N=[N+]=[N-])[C@H]2O1 (stereo not given in full)
TGI (A498 renal): 53 µM | TGI (BT-549 breast): 36.7 µM | TGI (HCT-15 colon): 38.3 µM | TGI (IGROV1 ovarian): 21.8 µM | TGI (K-562 leukemia): 29.1 µM | TGI (NCI-H23 lung): 39 µM | TGI (PC-3 prostate): 37 µM | TGI (SF-268 CNS): 41.3 µM | TGI (SW-620 colon): 52.4 µM | TGI (UACC-257 melanoma): 35.5 µM

CCOC(=O)Nc1sc2c(c1C#N)CCCC2
TGI (A498 renal): > 100 µM | TGI (BT-549 breast): > 100 µM | TGI (HCT-15 colon): > 100 µM | TGI (IGROV1 ovarian): > 100 µM | TGI (K-562 leukemia): > 100 µM | TGI (NCI-H23 lung): > 100 µM | TGI (PC-3 prostate): > 100 µM | TGI (SF-268 CNS): > 100 µM | TGI (SW-620 colon): > 100 µM | TGI (UACC-257 melanoma): > 100 µM

Cc1ccccc1C(=N)c1ccccc1Cc1cccc2ccccc12
TGI (A498 renal): 95 µM | TGI (BT-549 breast): 92 µM | TGI (HCT-15 colon): 56.1 µM | TGI (IGROV1 ovarian): > 100 µM | TGI (K-562 leukemia): > 100 µM | TGI (NCI-H23 lung): > 100 µM | TGI (PC-3 prostate): > 100 µM | TGI (SF-268 CNS): 68.2 µM | TGI (SW-620 colon): 66 µM | TGI (UACC-257 melanoma): > 100 µM

COc1ccc(N=NC(=Nc2ccccc2)c2ccc(N(CCC#N)CCC#N)cc2)cc1
TGI (A498 renal): > 100 µM | TGI (BT-549 breast): > 100 µM | TGI (HCT-15 colon): > 100 µM | TGI (IGROV1 ovarian): 89.3 µM | TGI (K-562 leukemia): > 100 µM | TGI (NCI-H23 lung): > 100 µM | TGI (PC-3 prostate): > 100 µM | TGI (SF-268 CNS): > 100 µM | TGI (SW-620 colon): > 100 µM | TGI (UACC-257 melanoma): 56.8 µM

N#CC(NCc1cccc(CNC(C#N)c2ccccc2)c1)c1ccccc1 (stereo not given)
TGI (A498 renal): > 100 µM | TGI (BT-549 breast): 87 µM | TGI (HCT-15 colon): 66.1 µM | TGI (IGROV1 ovarian): 41.8 µM | TGI (K-562 leukemia): 31.9 µM | TGI (NCI-H23 lung): > 100 µM | TGI (PC-3 prostate): > 100 µM | TGI (SF-268 CNS): > 100 µM | TGI (SW-620 colon): 61.4 µM | TGI (UACC-257 melanoma): > 100 µM

CC(=O)c1c2c(c3ccccc3c1O)O[C@@H]1OCC[C@H]21
TGI (A498 renal): > 100 µM | TGI (BT-549 breast): > 100 µM | TGI (HCT-15 colon): > 100 µM | TGI (IGROV1 ovarian): > 100 µM | TGI (K-562 leukemia): > 100 µM | TGI (NCI-H23 lung): > 100 µM | TGI (PC-3 prostate): > 100 µM | TGI (SF-268 CNS): > 100 µM | TGI (SW-620 colon): > 100 µM | TGI (UACC-257 melanoma): > 100 µM

COc1cccc(Nc2nc(-c3cccs3)nc3cc(OC)c(OC)cc23)c1
TGI (A498 renal): 48.5 µM | TGI (BT-549 breast): 86 µM | TGI (HCT-15 colon): 49.3 µM | TGI (IGROV1 ovarian): 69.3 µM | TGI (K-562 leukemia): > 100 µM | TGI (NCI-H23 lung): 89.7 µM | TGI (PC-3 prostate): 92.7 µM | TGI (SF-268 CNS): > 100 µM | TGI (SW-620 colon): 52.4 µM | TGI (UACC-257 melanoma): > 100 µM

Cc1ccnc(NS(=O)(=O)c2ccc(N=[N+]=[N-])cc2)n1
TGI (A498 renal): > 100 µM | TGI (BT-549 breast): > 100 µM | TGI (HCT-15 colon): > 100 µM | TGI (IGROV1 ovarian): > 100 µM | TGI (K-562 leukemia): > 100 µM | TGI (NCI-H23 lung): > 100 µM | TGI (PC-3 prostate): > 100 µM | TGI (SF-268 CNS): > 100 µM | TGI (SW-620 colon): > 100 µM | TGI (UACC-257 melanoma): > 100 µM

CC1CN(C)c2ccccc2N=C1NN (stereo not given)
TGI (A498 renal): > 100 µM | TGI (BT-549 breast): > 100 µM | TGI (HCT-15 colon): > 100 µM | TGI (IGROV1 ovarian): > 100 µM | TGI (K-562 leukemia): > 100 µM | TGI (NCI-H23 lung): > 100 µM | TGI (PC-3 prostate): > 100 µM | TGI (SF-268 CNS): > 100 µM | TGI (SW-620 colon): > 100 µM | TGI (UACC-257 melanoma): > 100 µM

CCCCCC1=CC(=O)C1(Cl)Cl
TGI (A498 renal): 43.3 µM | TGI (BT-549 breast): 56.8 µM | TGI (HCT-15 colon): 32.4 µM | TGI (IGROV1 ovarian): 48 µM | TGI (K-562 leukemia): 19.8 µM | TGI (NCI-H23 lung): 49.7 µM | TGI (PC-3 prostate): 42.1 µM | TGI (SF-268 CNS): 55.5 µM | TGI (SW-620 colon): 40.5 µM | TGI (UACC-257 melanoma): 33.3 µM

C[C@]12CC[C@H](O)CC1=CC[C@@H]1[C@@H]2CC[C@]2(C)C(=N/N)/C(=N\O)C[C@@H]12
TGI (A498 renal): 30.8 µM | TGI (BT-549 breast): > 100 µM | TGI (HCT-15 colon): > 100 µM | TGI (IGROV1 ovarian): 75.7 µM | TGI (K-562 leukemia): > 100 µM | TGI (NCI-H23 lung): > 100 µM | TGI (PC-3 prostate): > 100 µM | TGI (SF-268 CNS): > 100 µM | TGI (SW-620 colon): > 100 µM | TGI (UACC-257 melanoma): > 100 µM

COc1ncc(/C=C2\OC(=O)c3ccccc32)c(OC)n1
TGI (A498 renal): > 100 µM | TGI (BT-549 breast): 10.9 µM | TGI (HCT-15 colon): > 100 µM | TGI (IGROV1 ovarian): > 100 µM | TGI (K-562 leukemia): > 100 µM | TGI (NCI-H23 lung): > 100 µM | TGI (PC-3 prostate): > 100 µM | TGI (SF-268 CNS): > 100 µM | TGI (SW-620 colon): > 100 µM | TGI (UACC-257 melanoma): > 100 µM

Cc1oc2c(cc(O)c3cc(O)ccc32)c2cccc1-2
TGI (A498 renal): > 100 µM | TGI (BT-549 breast): 44 µM | TGI (HCT-15 colon): > 100 µM | TGI (IGROV1 ovarian): > 100 µM | TGI (K-562 leukemia): > 100 µM | TGI (NCI-H23 lung): > 100 µM | TGI (PC-3 prostate): > 100 µM | TGI (SF-268 CNS): > 100 µM | TGI (SW-620 colon): > 100 µM | TGI (UACC-257 melanoma): > 100 µM

Oc1ccccc1CNCc1nc2ccccc2[nH]1
TGI (A498 renal): > 100 µM | TGI (BT-549 breast): > 100 µM | TGI (HCT-15 colon): 12.3 µM | TGI (IGROV1 ovarian): > 100 µM | TGI (K-562 leukemia): > 100 µM | TGI (NCI-H23 lung): > 100 µM | TGI (PC-3 prostate): > 100 µM | TGI (SF-268 CNS): > 100 µM | TGI (SW-620 colon): > 100 µM | TGI (UACC-257 melanoma): > 100 µM

COC(=O)C1=C(C(=O)OC)SC(=C2SCSC3=C2SC(C(=O)OC)=C(C(=O)OC)C32SC3=C(CCCC3)S2)S1
TGI (A498 renal): > 100 µM | TGI (BT-549 breast): > 100 µM | TGI (HCT-15 colon): > 100 µM | TGI (IGROV1 ovarian): > 100 µM | TGI (K-562 leukemia): > 100 µM | TGI (NCI-H23 lung): > 100 µM | TGI (PC-3 prostate): > 100 µM | TGI (SF-268 CNS): > 100 µM | TGI (SW-620 colon): > 100 µM | TGI (UACC-257 melanoma): > 100 µM

CC(=O)N1C(C(=O)NC2CCCCC2)CSC1c1ccccc1 (stereo not given)
TGI (A498 renal): > 100 µM | TGI (BT-549 breast): > 100 µM | TGI (HCT-15 colon): > 100 µM | TGI (IGROV1 ovarian): > 100 µM | TGI (K-562 leukemia): > 100 µM | TGI (NCI-H23 lung): > 100 µM | TGI (PC-3 prostate): > 100 µM | TGI (SF-268 CNS): > 100 µM | TGI (SW-620 colon): > 100 µM | TGI (UACC-257 melanoma): > 100 µM
